Measurements from patent US10131652B2, “Pyrimidinyloxy benzene derivatives as herbicides” (E. I. DU PONT DE NEMOURS AND COMPANY, priority 2014, dated 2018).
Read-outs that look alike come from different tables or passages of the source.

Assays:
Assay type in all cases: in vivo
[1] = test system: barnyardgrass (Echinochloa crus-galli); test: Test C flooded paddy test plant response; details: Echinochloa crus-galli; Flood, 250 g ai/ha; scale of 0 to 100 where 0 is no effect and 100 is complete control; 13 to 15 days; read-out: Barnyardgrass plant response rating
Procedure, shortened: (§1)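 Visual injury ratings (0, no effect; 100, complete control) were assigned after 13 to 15 days in a greenhouse, comparing treated plants with controls. Compounds had been added straight into paddy water over 2-leaf-stage plants flooded to 3 cm.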

[2] = test system: rice (Oryza sativa); test: Test C flooded paddy test plant response; details: Oryza sativa; Flood, 250 g ai/ha; scale of 0 to 100 where 0 is no effect and 100 is complete control; 13 to 15 days; read-out: Rice plant response rating
Procedure, shortened: as §1

[3] = test system: small-flower umbrella sedge (Cyperus difformis); test: Test C flooded paddy test plant response; details: Cyperus difformis; Flood, 250 g ai/ha; scale of 0 to 100 where 0 is no effect and 100 is complete control; 13 to 15 days; read-out: Sedge, Umbrella plant response rating
Procedure, shortened: as §1

[4] = test system: ducksalad (Heteranthera limosa); test: Test C flooded paddy test plant response; details: Heteranthera limosa; Flood, 250 g ai/ha; scale of 0 to 100 where 0 is no effect and 100 is complete control; 13 to 15 days; read-out: Ducksalad plant response rating
Procedure, shortened: as §1

[5] = test system: barnyardgrass (Echinochloa crus-galli); test: Test B pre-/postemergence plant response; details: Echinochloa crus-galli, 240 h, read-out: Plant response rating, Barnyardgrass; for pest or weed control at 125 g/ha: 125 g ai/ha; for pest or weed control at 500 g/ha: 500 g ai/ha
Procedure, shortened: (§2)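 Seeds in loam–sand blend given preemergence soil spray; separately, plants at one- to two-leaf stage (2–10 cm) sprayed postemergence, compounds in non-phytotoxic solvent with surfactant. Injury rated visually versus untreated controls after ~10 days in greenhouse, 0 (no effect) to 100 (complete control).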

[6] = test system: corn (Zea mays); test: Test B pre-/postemergence plant response; details: Zea mays, 240 h; for Corn plant response rating (crop injury, 0 = no effect, 100 = complete kill) at 125 g/ha: 125 g ai/ha; for Corn plant response rating (crop injury, 0 = no effect, 100 = complete kill) at 500 g/ha: 500 g ai/ha
Procedure, shortened: as §2

[7] = test system: pigweed (Amaranthus retroflexus); test: Test B pre-/postemergence plant response; details: Amaranthus retroflexus, 240 h, read-out: Plant response rating, Pigweed; for pest or weed control at 125 g/ha: 125 g ai/ha; for pest or weed control at 500 g/ha: 500 g ai/ha
Procedure, shortened: as §2

[8] = test system: giant foxtail (Setaria faberii); test: Test B pre-/postemergence plant response; details: Setaria faberi, 240 h, read-out: Plant response rating, Foxtail, Giant; for pest or weed control at 125 g/ha: 125 g ai/ha; for pest or weed control at 500 g/ha: 500 g ai/ha
Procedure, shortened: as §2

[9] = test system: wheat (Triticum aestivum); test: Test B pre-/postemergence plant response; details: Triticum aestivum, 240 h, read-out: Plant response rating, Wheat; for plant injury at 125 g/ha: 125 g ai/ha; for plant injury at 500 g/ha: 500 g ai/ha
Procedure, shortened: as §2

[10] = post-emergence, postemergence, 0 to 100 scale, 0 no effect, 100 complete control
[11] = post-emergence, Postemergence, 0 to 100 scale (0 no effect, 100 complete control)
[12] = pre-emergence, Preemergence, 0 to 100 scale where 0 is no effect and 100 is complete control

Row | SMILES | pest or weed control at 250 g/ha [1] [%] | plant injury at 250 g/ha [2] [%] | pest or weed control at 250 g/ha [3] [%] | pest or weed control at 250 g/ha [4] [%] | pest or weed control at 125 g/ha [5, 10] [%] | pest or weed control at 500 g/ha [5, 11] [%] | pest or weed control at 125 g/ha [5, 12] [%] | pest or weed control at 500 g/ha [5, 12] [%] | Corn plant response rating (crop injury, 0 = no effect, 100 = complete kill) at 125 g/ha [6, 10] [%] | Corn plant response rating (crop injury, 0 = no effect, 100 = complete kill) at 500 g/ha [6, 11] [%] | Corn plant response rating (crop injury, 0 = no effect, 100 = complete kill) at 125 g/ha [6, 12] [%] | Corn plant response rating (crop injury, 0 = no effect, 100 = complete kill) at 500 g/ha [6, 12] [%] | pest or weed control at 125 g/ha [7, 10] [%] | pest or weed control at 500 g/ha [7, 11] [%] | pest or weed control at 125 g/ha [7, 12] [%] | pest or weed control at 500 g/ha [7, 12] [%] | pest or weed control at 125 g/ha [8, 10] [%] | pest or weed control at 500 g/ha [8, 11] [%] | pest or weed control at 125 g/ha [8, 12] [%] | pest or weed control at 500 g/ha [8, 12] [%] | other results
1 | FC(F)(F)c1ccnc(-c2ccccc2Oc2ncc(Cl)cn2)c1 [Compound 25, 5-chloro-2-[2-[4-(trifluoromethyl)-2-pyridinyl]phenoxy]pyrimidine] | 0 | 0 | 20 | 30 | 0 | 30 | 10 | 70 | 10 | 30 | 0 | 0 | 30 | 90 | 60 | 100 | 0 | 60 | 40 | 90 | plant injury at 125 g/ha [9, 10]: 0%; plant injury at 500 g/ha [9, 11]: 10%; plant injury at 125 g/ha [9, 12]: 0%; plant injury at 500 g/ha [9, 12]: 0%
2 | FC(F)(F)c1ccc(-c2ccccc2Oc2ncc(Cl)cn2)nc1 [Compound 27, 5-chloro-2-[2-[5-(trifluoromethyl)-2-pyridinyl]phenoxy]pyrimidine] | 0 | 0 | 40 | 30 | 20 | 50 | 10 | 80 | 0 | 30 | 0 | 0 | 50 | 100 | 80 | 100 | 20 | 70 | 60 | 90 | plant injury at 125 g/ha [9, 10]: 0%; plant injury at 500 g/ha [9, 11]: 0%; plant injury at 125 g/ha [9, 12]: 0%; plant injury at 500 g/ha [9, 12]: 0%
3 | FCc1cc(-c2ccccc2Oc2ncc(Cl)cn2)no1 [Compound 32, 5-chloro-2-[2-[5-(fluoromethyl)-3-isoxazolyl]phenoxy]pyrimidine] | 0 | 20 | 85 | 90 | 70 | 90 | 90 | 90 | 10 | 50 | 0 | 0 | 100 | 100 | 100 | 100 | 70 | 90 | 90 | 100 | plant injury at 125 g/ha [9, 10]: 30%; plant injury at 500 g/ha [9, 11]: 60%; plant injury at 125 g/ha [9, 12]: 0%; plant injury at 500 g/ha [9, 12]: 10%
4 | FC(F)(F)Oc1ccc(-c2ccccc2Oc2ncc(Cl)cn2)cc1 [Compound 42, 5-chloro-2-[[4′-(trifluoromethoxy)[1,1′-biphenyl]-2-yl]oxy]pyrimidine] | 0 | 0 | 0 | 0 | 20 | 30 | 20 | 70 | 20 | 20 | 0 | 0 | 60 | 80 | 50 | 90 | 10 | 30 | 70 | 100 | plant injury at 125 g/ha [9, 10]: 0%; plant injury at 500 g/ha [9, 11]: 0%; plant injury at 125 g/ha [9, 12]: 0%; plant injury at 500 g/ha [9, 12]: 0%
